Source: patent publication US20240158446A1, “CYCLIC COMPOUND HAVING SELECTIVE INHIBITORY ACTION ON KRAS OVER HRAS AND NRAS” (CHUGAI SEIYAKU KABUSHIKI KAISHA, priority 2021, published 2024)
Where two headings read alike, the source gives them in different places.

Legend:
[1] = target: GDP-bound KRAS wild-type protein (Homo sapiens, UniProt P01116); test: Binding to KRAS by surface plasmon resonance (SPR), Single Cycle Kinetics; settings: GDP-bound KRAS wild-type protein, read-out: KRAS KD
[2] = target: GDP-bound NRAS wild-type protein (Homo sapiens, UniProt P01111); test: Binding to NRAS by surface plasmon resonance (SPR), Single Cycle Kinetics; settings: for NRAS/KRAS (ratio of KD value with respect to GDP-bound NRAS wild-type protein to KD value with respect to KRAS): SPR KD ratio NRAS/KRAS, class symbols; for NRAS/KRAS (ratio of KD value for NRAS to KD value for KRAS): GDP-bound NRAS wild-type protein vs GDP-bound KRAS wild-type protein
[3] = target: GDP-bound HRAS wild-type protein (Homo sapiens, UniProt P01112); test: Binding to HRAS by surface plasmon resonance (SPR), Single Cycle Kinetics; settings: for HRAS/KRAS (ratio of KD value with respect to GDP-bound HRAS wild-type protein to KD value with respect to KRAS): SPR KD ratio HRAS/KRAS, class symbols; for HRAS/KRAS (ratio of KD value for HRAS to KD value for KRAS): GDP-bound HRAS wild-type protein vs GDP-bound KRAS wild-type protein
[4] = test system: human lung cancer strain NCI-H441;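 note: cell proliferation inhibition after four days measured by CellTiter-Glo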
[5] = SPR Single Cycle Kinetics, 1:1 binding model
[6] = SPR, Single Cycle Kinetics, 1:1 binding model

Chain of GDP-bound HRAS wild-type protein (P01112 whole entry): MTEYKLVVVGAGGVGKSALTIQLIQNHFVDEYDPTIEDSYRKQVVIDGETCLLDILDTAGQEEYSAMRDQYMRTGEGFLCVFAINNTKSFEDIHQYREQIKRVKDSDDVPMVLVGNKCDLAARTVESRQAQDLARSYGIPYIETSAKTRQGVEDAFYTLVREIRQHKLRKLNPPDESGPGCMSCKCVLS
Chain of GDP-bound KRAS wild-type protein (P01116 whole entry): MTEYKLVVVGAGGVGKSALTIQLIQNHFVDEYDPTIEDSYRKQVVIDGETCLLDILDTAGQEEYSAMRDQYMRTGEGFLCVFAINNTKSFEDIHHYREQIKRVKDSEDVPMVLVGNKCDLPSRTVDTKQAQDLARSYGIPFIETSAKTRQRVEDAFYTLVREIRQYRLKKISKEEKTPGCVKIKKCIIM
Chain of GDP-bound NRAS wild-type protein (P01111 whole entry): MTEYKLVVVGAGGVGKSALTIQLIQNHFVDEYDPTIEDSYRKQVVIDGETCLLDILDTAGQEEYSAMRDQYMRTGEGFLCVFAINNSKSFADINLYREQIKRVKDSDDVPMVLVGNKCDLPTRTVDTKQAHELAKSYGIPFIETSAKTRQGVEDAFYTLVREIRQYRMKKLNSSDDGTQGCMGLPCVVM

Structure (SMILES) | Kd [1, 5] [nM] | IC50 [4] [nM] | Kd ([1]; SPR, Single Cycle Kinetics) [nM] | NRAS/KRAS (ratio of KD value with respect to GDP-bound NRAS wild-type protein to KD value with respect to KRAS) [2] | HRAS/KRAS (ratio of KD value with respect to GDP-bound HRAS wild-type protein to KD value with respect to KRAS) [3] | NRAS/KRAS (ratio of KD value for NRAS to KD value for KRAS) ([2]; SPR) | HRAS/KRAS (ratio of KD value for HRAS to KD value for KRAS) ([3]; SPR) | further results
CC[C@H](C)[C@@H]1NC(=O)[C@H](COC)N(C)C(=O)C[C@@H](C(=O)N2CCCCC2)N(C)C(=O)[C@H](C2CCCC2)N(C)C(=O)C2(CC(C)(C)C2)NC(=O)[C@@H]2C[C@@H](OC3CCCC3)CN2C(=O)[C@H](CCc2cc(F)c(C(F)(F)F)c(F)c2)NC(=O)CN(C)C(=O)[C@H](Cc2ccc(C(F)(F)F)cc2)N2CC/C=C\C[C@@H](C2=O)N(C)C(=O)CN(C)C1=O [PP2665] | 0.56 | 23.4 | – | A (a compound having 10 or more and less than 20 is denoted as A) | A (a compound having 10 or more and less than 20 is denoted as A) | – | – | –
C=CCC[C@H]1C(=O)N[C@@H]([C@@H](C)CC)C(=O)N(C)CC(=O)N(C)[C@H]2CCCCCN(C2=O)[C@@H](Cc2ccc(C(F)(F)F)cc2)C(=O)N(C)CC(=O)N[C@@H](CCc2cc(F)c(C(F)(F)F)c(F)c2)C(=O)N2C[C@H](OCC)C[C@H]2C(=O)N[C@](C)(CC=C)C(=O)N(C)[C@@H](C2CCCC2)C(=O)N(C)[C@H](C(=O)N2CCOCC2)CC(=O)N1C [PP0879] | – | 195 | 8.6 | – | – | B (a compound having 3 or more and less than 10 is denoted as B) | B (a compound having 3 or more and less than 10 is denoted as B) | –
CC[C@H](C)[C@@H]1NC(=O)[C@H](CC2CCC2)N(C)C(=O)C[C@@H](C(=O)N2CCOCC2)N(C)C(=O)[C@H](C2CCCC2)N(C)C(=O)C2(CCC2)NC(=O)[C@@H]2CCCN2C(=O)[C@H](CCc2ccc(C(F)(F)F)c(Cl)c2)NC(=O)CN(C)C(=O)[C@H](Cc2ccc(C(F)(F)F)cc2)N2C[C@H](C)CC[C@@H](C2=O)N(C)C(=O)[C@@H]2CCN2C1=O [PP1345] | – | 34.8 | – | – | – | – | – | Kd [1, 6]: 0.71 nM; NRAS/KRAS (ratio of KD value for NRAS to KD value for KRAS) ([2]; SPR, KD ratio class): A (a compound having 10 or more and less than 20 is denoted as A); HRAS/KRAS (ratio of KD value for HRAS to KD value for KRAS) ([3]; SPR, KD ratio class): B (a compound having 3 or more and less than 10 is denoted as B)
CC[C@H](C)[C@@H]1NC(=O)[C@H](CC2CC2)N(C)C(=O)C[C@@H](C(=O)N(C)C)N(C)C(=O)[C@H](C2CCCC2)N(C)C(=O)C2(CCC2)NC(=O)[C@H](CCC(F)F)N(C)C(=O)[C@H](CCc2cc(F)c(C(F)(F)F)c(F)c2)NC(=O)CN(C)C(=O)[C@H](Cc2ccc(C(F)(F)F)cc2)N2CC/C=C\C[C@@H](C2=O)N(C)C(=O)CN(C)C1=O [PP1402] | – | 82 | – | – | – | – | – | Kd [1, 6]: 0.3 nM; NRAS/KRAS (ratio of KD value for NRAS to KD value for KRAS) ([2]; SPR, KD ratio class): A (a compound having 10 or more and less than 20 is denoted as A); HRAS/KRAS (ratio of KD value for HRAS to KD value for KRAS) ([3]; SPR, KD ratio class): A (a compound having 10 or more and less than 20 is denoted as A)
CCO[C@@H]1C[C@H]2C(=O)NC3(CCC3)C(=O)N(C)[C@@H](C3CCCC3)C(=O)N(C)[C@H](C(=O)N3CCOCC3)CC(=O)N(C)[C@@H](Cc3cccs3)C(=O)N[C@@H]([C@@H](C)CC)C(=O)N(C)CC(=O)N(C)[C@H]3CCCCCN(C3=O)[C@@H](Cc3ccc(C(F)(F)F)cc3)C(=O)N(C)CC(=O)N[C@@H](CCc3cc(F)c(C(F)(F)F)c(F)c3)C(=O)N2C1 [PP1163] | – | 93.3 | 0.59 | – | – | B (a compound having 3 or more and less than 10 is denoted as B) | B (a compound having 3 or more and less than 10 is denoted as B) | –

Second part, led by results:

Kd [1, 5] [nM] | IC50 [4] [nM] | Kd ([1]; SPR, Single Cycle Kinetics) [nM] | Structure (SMILES) | NRAS/KRAS (ratio of KD value with respect to GDP-bound NRAS wild-type protein to KD value with respect to KRAS) [2] | HRAS/KRAS (ratio of KD value with respect to GDP-bound HRAS wild-type protein to KD value with respect to KRAS) [3] | NRAS/KRAS (ratio of KD value for NRAS to KD value for KRAS) ([2]; SPR) | HRAS/KRAS (ratio of KD value for HRAS to KD value for KRAS) ([3]; SPR) | further results
– | 4.6 | 0.016 | CCC[C@H]1C(=O)N[C@@H]([C@@H](C)CC)C(=O)N(C)CC(=O)N(C)[C@H]2C/C=C\CCN(C2=O)[C@@H](Cc2ccc(C)cc2)C(=O)N(C)CC(=O)N[C@@H](CCc2ccc(C(F)(F)F)c(OC)c2)C(=O)N2C[C@@H](C)C[C@H]2C(=O)N(C)C2(CCC2)C(=O)N(C)[C@@H](C2CCCC2)C(=O)N(C)[C@H](C(=O)N(C)C)CC(=O)N1C [PP2364] | – | – | A (a compound having 10 or more and less than 20 is denoted as A) | B (a compound having 3 or more and less than 10 is denoted as B) | –
– | 2.1 | 0.055 | CCO[C@@H]1C[C@H]2C(=O)N(C)C3(CC(C)(C)C3)C(=O)N(C)[C@@H](C3CCCC3)C(=O)N(C)[C@H](C(=O)N(C)C)CC(=O)N(C)[C@H]3CCC/C=C/c4ccc(cc4)C[C@@H](C(=O)N(C)CC(=O)N[C@@H](CCc4ccc(Cl)c(Cl)c4)C(=O)N2C1)N1CC/C=C\C[C@@H](C1=O)N(C)C(=O)CN(C)C(=O)[C@H]([C@@H](C)CC)NC3=O [PP3059] | – | – | A (a compound having 10 or more and less than 20 is denoted as A) | A (a compound having 10 or more and less than 20 is denoted as A) | –
1.6 | 92.6 | – | CCC[C@H]1C(=O)N[C@@H]([C@@H](C)CC)C(=O)N2CCC[C@H]2C(=O)N(C)[C@H]2C/C=C\CCN(C2=O)[C@@H](Cc2ccc(C(F)F)cc2)C(=O)N(C)CC(=O)N[C@@H](CCc2ccc(Cl)c(Cl)c2)C(=O)N2C[C@H](OC3CCC3)C[C@H]2C(=O)NC2(CC(C)(C)C2)C(=O)N(C)[C@@H](C(CC)CC)C(=O)N(C)[C@H](C(=O)N(C)C)CC(=O)N1C [PP2646] | AA (a compound having 20 or more is denoted as AA) | A (a compound having 10 or more and less than 20 is denoted as A) | – | – | –
0.28 | 30.5 | – | CCC[C@H]1C(=O)N[C@H]([C@@H](C)CC)C(=O)N2C[C@@H](OC)C[C@H]2C(=O)N(C)[C@H]2C/C=C\CCN(C2=O)[C@@H](Cc2ccc(C)cc2)C(=O)N(C)CC(=O)N[C@@H](CCc2ccc(C(F)(F)F)c(Cl)c2)C(=O)N2C[C@H](OCC)C[C@H]2C(=O)NC2(CCC2)C(=O)N(C)[C@@H](C2CCCC2)C(=O)N(C)[C@H](C(=O)N(C)C)CC(=O)N1C (stereo in doubt) [PP2552] | A (a compound having 10 or more and less than 20 is denoted as A) | B (a compound having 3 or more and less than 10 is denoted as B) | – | – | –
– | – | 0.33 | CCCO[C@@H]1C[C@H]2C(=O)NC3(CC(C)(C)C3)C(=O)N(C)[C@@H](C3CCCC3)C(=O)N(C)[C@H](C(=O)N(C)CC)CC(=O)N(C)[C@H]3CCCc4ccc(cc4)C[C@@H](C(=O)N(C)CC(=O)N[C@@H](CCc4ccc(Cl)c(Cl)c4)C(=O)N2C1)N1CC/C=C\C[C@@H](C1=O)N(C)C(=O)CN(C)C(=O)[C@H]([C@@H](C)CC)NC3=O [PP3089] | – | – | B (a compound having 3 or more and less than 10 is denoted as B) | B (a compound having 3 or more and less than 10 is denoted as B) | ratio of the KD value with respect to GDP-bound NRAS wild-type protein to the KD value with respect to KRAS ([2]; SPR, KD(NRAS)/KD(KRAS)): B (a compound having 3 or more and less than 10 is denoted as B); ratio of the KD value with respect to GDP-bound HRAS wild-type protein to the KD value with respect to KRAS ([3]; SPR, KD(HRAS)/KD(KRAS)): B (a compound having 3 or more and less than 10 is denoted as B); IC50 ([4]; read-out: NCI-H441 cell proliferation inhibitory activity, 50% proliferation inhibitory concentration (IC50 value), NCI-H441, four days, CellTiter-Glo): 27 nM
